Experimental data from PMC8254048, “An interdomain hydrogen bond in the Rag GTPases maintains stable mTORC1 signaling in sensing amino acids” (The Journal of Biological Chemistry, 2021).

How the values were obtained:
[1] = target: T1, RagA–RagC GTPase heterodimer (Rag GTPases) (Homo sapiens, UniProt Q7L523+Q9HB90, Q7L523:T210A); assay: half-site GTP hydrolysis after nucleotide preloading; type: biochemical; conditions: 1.2 molar equivalents prebound, labelled GTP added; pH 7.4, 2 mM MgCl2, 25 °C; stimulates hydrolysis on second subunit
T1 construct: gene RRAGA; RagA-RagC heterodimer coexpressed in E. coli BL21(DE3); nucleotide stripped with EDTA, gel filtration
T1 sequence (Q7L523 whole entry T210A): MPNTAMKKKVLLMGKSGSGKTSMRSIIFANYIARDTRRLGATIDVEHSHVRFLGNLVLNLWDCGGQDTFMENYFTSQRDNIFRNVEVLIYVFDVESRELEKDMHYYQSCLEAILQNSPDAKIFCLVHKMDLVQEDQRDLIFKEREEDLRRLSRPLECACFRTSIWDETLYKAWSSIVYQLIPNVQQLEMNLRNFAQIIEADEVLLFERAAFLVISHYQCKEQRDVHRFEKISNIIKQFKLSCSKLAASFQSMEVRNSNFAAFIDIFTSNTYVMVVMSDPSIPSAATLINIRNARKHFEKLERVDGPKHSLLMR
T1 sequence (Q9HB90 whole entry): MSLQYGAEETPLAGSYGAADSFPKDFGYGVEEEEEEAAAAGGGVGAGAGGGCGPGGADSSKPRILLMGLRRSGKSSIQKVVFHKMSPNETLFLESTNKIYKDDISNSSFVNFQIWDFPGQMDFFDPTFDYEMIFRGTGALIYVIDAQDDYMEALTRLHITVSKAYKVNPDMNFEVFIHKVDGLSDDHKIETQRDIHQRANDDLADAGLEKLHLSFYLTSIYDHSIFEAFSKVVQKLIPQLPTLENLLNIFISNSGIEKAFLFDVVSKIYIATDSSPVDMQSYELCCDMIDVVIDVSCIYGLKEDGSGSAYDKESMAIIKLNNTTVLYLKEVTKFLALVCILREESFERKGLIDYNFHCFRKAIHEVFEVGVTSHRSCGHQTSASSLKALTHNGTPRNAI

[2] = target: T2, RagA–RagC GTPase heterodimer (Rag GTPases) (Homo sapiens, UniProt Q7L523+Q9HB90, Q9HB90:S266A); assay: as above; type: biochemical; conditions: 1.2 molar equivalents prebound, labelled GTP added; pH 7.4, 2 mM MgCl2, 25 °C; stimulates hydrolysis on second subunit
T2 construct: gene RRAGA; RagA-RagC heterodimer coexpressed in E. coli BL21(DE3); nucleotide stripped with EDTA, gel filtration
T2 sequence (Q7L523 whole entry): as the sequence (Q7L523 whole entry T210A) above, with A210T counted along it
T2 sequence (Q9HB90 whole entry S266A): as the sequence (Q9HB90 whole entry) above, with S266A counted along it

Nc1nc2c(ncn2[C@@H]2O[C@H](COP(=O)(O)OP(=O)(O)NP(=O)(O)O)[C@@H](O)[C@H]2O)c(=O)[nH]1 [GppNHp]
half-site GTP hydrolysis after nucleotide preloading [1]: prebound GTP or GppNHp stimulated hydrolysis of the later-bound GTP to a much higher level
half-site GTP hydrolysis after nucleotide preloading [2]: prebound GTP or GppNHp stimulated hydrolysis of the later-bound GTP to a much higher level
